Key:
[1] = system: TNBC classified C2 IFN-γ Dominant or not; assay: G1T28-04 survival by Thorsson Six Class Immune Signature; format: in vivo, human; details: TNBC classified as C2 IFN-γ Dominant; Groups 2+3 (Group 4) vs Group 1; p=0.036
Description: Tumor samples from patients participating in the clinical trial (Clinical trials.gov identifier NCT02978716) described in Example 1 where assayed by Q^2 Solutions (Morrisville, N.C.) to determine their Six Class Immune Classification as described in Thorsson V, et al. “The Immune Landscape of Cancer.” Immunity, […], 2018, pp. 812-830. doi: 10.1016/j.immuni.2018.03.023 (incorporated herein by reference in its entirety).
Briefly, a six-step procedure was implemented to apply the Thorsson et al. classification to 89 pre-treatment triple negative breast cancer samples secured in the clinical trial described in Example 1. Following RNAseq data procurement, the data was cleaned and homogenized by reconciling gene and sample names across data sources. […] In short, samples in the resulting TCGA expression data were randomly down-sampled to more closely reflect the abundance of PAM50 classes within the clinical trial data (previously derived, see Example 1, Table 7). […]
Survival and response rates between treatment groups within pre-defined immune response groups were determined using a series of pair-wise, two-group tests based on the data derived in the G1T28-04 clinical trial described in Example 1. Additionally, examination of differences in survival and response rates between different immune response categories within a single treatment group were analyzed. […]

CD8+ T cells = format: cell-based, human; details: mTNBC patients
[2] = system: TNBC with high or low Ayers immune signature score; assay: G1T28-04 survival by Ayers IFN-γ Signature / Expanded Immune Signature score; format: in vivo, human; details: Groups 2+3 (Group 4) vs Group 1
Experimental: Tumor samples from patients participating in the clinical trial described in Example 1 where assayed by Q^2 Solutions (Morrisville, N.C.) to determine their Ayers Immune Scores according to Ayers et al., IFN-γ-related mRNA Profile Predicts Clinical Response to PD-1 Blockade, J Clin Invest. 2017127(8)2930-2940. The data was processed using RNA Access, and FPKM normalization prior to log 10 transformation and averaging was performed.
89 samples were analyzed. The calculated signature score for both the IFN-γ Signature and Expanded Immune Signature were unimodel in distribution, and the median score was used to define the “High” and “Low” categories.
Survival and response rates between treatment groups within pre-defined immune response groups were determined using a series of pair-wise, two-group tests based on the data derived in the G1T28-04 clinical trial described in Example 1. Additionally, examination of differences in survival and response rates between different immune response categories within a single treatment group were analyzed.
Kaplan-Meier curves were generated to visualize the overall survival and progression free survival among groups (see FIGS. 8C-8F and 9A-9D). […]

[3] = system: T-cell clones (T-cell receptor β sequences); assay: Phase 2 NCT03041311 (E/P/A with or without trilaciclib): TCRB differential abundance analysis in whole blood; format: in vivo, human; details: for T-cell clonal expansion in responders: trilaciclib responders vs placebo responders and vs trilaciclib non-responders (FIG. 12)
Experimental: (§1) A phase 2 study of carboplatin, etoposide, and atezolizumab with or without trilaciclib in patients with untreated extensive stage small cell lung cancer was initiated (Clinicaltrials.gov identifier NCT03041311). […] a 21-day induction phase and a 21-day maintenance phase. Four induction phase cycles were completed prior to the initiation of the maintenance phase cycle.
In the induction phase, patients received trilaciclib (240 mg/m2 diluted in 250 mL D5W or sodium chloride solution 0.9%) or placebo (250 mL of D5W or sodium chloride solution 0.9%) administered IV once daily on days 1 to 3 of a 21-day cycle of each etoposide/carboplatin/atezolizumab (E/P/A) therapy cycle (up to 4 cycles in total). […] Atezolizumab (1200 mg) in 250 mL sodium chloride solution 0.9% was administered as an IV infusion on day 1 of each 21-day cycle in both the induction and maintenance phases. Atezolizumab was infused over 60 minutes for the first administration and, if tolerated, all subsequent infusions were delivered over 30 minutes. Atezolizumab was administered following the completion of administration of Compound I or placebo, etoposide, and carboplatin.
Analysis of the TCRB locus in blood samples was performed to identify biomarkers of immune response and immunomodulatory activity between the trilaciclib arm and the placebo arm. All samples were sequenced using a 1-rxn TCRB Assay. The number of expanded T-cell clones was determined by the differential abundance analysis of T-cell receptor β sequences in whole blood from patients at after induction and prior to starting maintenance versus baseline.

[4] = system: extensive stage small cell lung cancer; assay: Phase 2 NCT03041311: overall survival by newly expanded clone fraction; format: in vivo, human; details: SCLC patients on E/P/A above the newly expanded clone fraction median; p=0.04
Experimental: as §1
. […] Atezolizumab (1200 mg) in 250 mL sodium chloride solution 0.9% was administered as an IV infusion on day 1 of each 21-day cycle in both the induction and maintenance phases. Atezolizumab was infused over 60 minutes for the first administration and, if tolerated, all subsequent infusions were delivered over 30 minutes. Atezolizumab was administered following the completion of administration of Compound I or placebo, etoposide, and carboplatin.

[5] = system: TNBC tumors categorized as CDK4/6 independent, dependent or indeterminate; assay: G1T28-04 subgroup analysis by CDK4/6 dependency signature (PAM50, Lehmann)
Description: Using two established signatures (Prosigna Breast Cancer Prognostic Gene Signature Assay [PAM50] and Lehmann triple-negative breast cancer type 1-4), patient tumors were characterized as CDK4/6 independent, dependent, or indeterminate. […] Because their reliance on the CDK4/6 pathway for proliferation is either unknown or heterogeneous, the remaining PAM50 signature groups (including HER2, normal-like, luminal A, and luminal B) are categorized as CDK4/6 indeterminate.
To address the theoretical risk that trilaciclib could decrease antitumor activity in patients with CDK4/6 dependent tumors by arresting CDK4/6-dependent tumor cells during chemotherapy, an additional prespecified subgroup analysis of the antitumor activity endpoints (objective response, progression-free survival, and overall survival) using two established signatures (PAM50 and Lehmann triple-negative breast cancer type 1-4) was performed to characterize patient tumors as CDK4/6 independent, dependent, or indeterminate.

[6] = system: PD-L1 positive or negative TNBC tumors; assay: G1T28-04 overall survival by PD-L1 tumor status (Ventana SP142); format: in vivo, human; details: p=0.005
Experimental: Patient tumors from the G1T28-04 clinical trial described in Example 1 were characterized based on PD-L1 expression scored as negative or positive if <1% or ≥1% of the total tumor area contained PD-L1-labelled immune cells, respectively, using the Ventana SP142 assay. Association of PD-L1 expression with antitumor efficacy was assessed using proportional hazards regression. The groups are divided as follows: Group 1 (gemcitabine+carboplatin only on days 1 and 8 in a 21-day cycles), Group 2 (gemcitabine+carboplatin+trilaciclib on days 1 and 8 in a 21 day cycle), and Group 3 (gemcitabine+carboplatin on days 2 and 9+trilaciclib on days 1, 2, 8, and 9 in a 21-day cycle).

Compound: CN1CCN(c2ccc(Nc3ncc4cc5n(c4n3)C3(CCCCC3)CNC5=O)nc2)CC1 [trilaciclib, 2′-((5-(4-methylpiperazin-1-yl)pyridin-2-yl)amino)-7′, 8′-dihydro-6′H-spiro(cyclohexane-1,9′-pyrazino(1′,2′:1,5)pyrrolo(2,3-d)pyrimidin)-6′-one]
- Overall survival compared with Group 1 (not receiving trilaciclib) [1]: significantly improved overall survival
- Lymphocyte counts and T-cell activation (CD8+ T cells; addition of trilaciclib to gemcitabine and carboplatin): did not preserve lymphocyte counts or enhance T-cell activation
- Frequency of CD8+ T cells producing IFN-γ after ex-vivo stimulation (CD8+ T cells; GC plus trilaciclib vs group 1 (FIG. 5)): higher frequency
- Overall survival compared with Group 1 (not receiving trilaciclib) ([2]; TNBC with high Ayers Expanded Immune Signature score): significantly improved overall survival
- Overall survival compared with Group 1 (not receiving trilaciclib) ([2]; TNBC with high Ayers IFN-γ Signature score, p=0.0194): significantly improved overall survival
- Number of expanded T-cell clones ([3]; SCLC patients on E/P/A, trilaciclib vs E/P/A only, after induction vs baseline, P=0.01, FIG. 11): significantly higher
- Number of newly expanded T-cell clones in responders ([3]; SCLC, E/P/A, responders receiving trilaciclib vs without, p=0.001, FIG. 13): more newly expanded clones
- Fraction of newly expanded clones versus all expanded clones in responders ([3]; SCLC, E/P/A, responders receiving trilaciclib vs without, p=0.001, FIG. 14): significantly increased
- T-cell clonal expansion in responders ([3]; SCLC, E/P/A): more T-cell clonal expansion
- T-cell clonal expansion in responders ([3]; SCLC, E/P/A, listed as Trilaciclib): more clonal expansion
- OS HR (trilaciclib versus placebo) [4]: 0.34
- Effect of including trilaciclib on chemotherapy efficacy ([5]; TNBC with variable or CDK4/6 dependent tumor (PAM50 Other or Lehmann LAR)): did not antagonize chemotherapy efficacy
- Effect of including trilaciclib on chemotherapy efficacy ([5]; TNBC with variable or CDK4/6 independent tumor (PAM50 Basal-Like or Lehmann Other)): did not antagonize chemotherapy efficacy
- Overall survival compared with patients who did not receive trilaciclib [6]: statistically significant overall survival

Reference: patent US20220175787A1, “PATIENT SELECTION FOR ENHANCEMENT OF ANTI-TUMOR IMMUNITY IN CANCER PATIENTS” (G1 Therapeutics Inc., priority 2019, published 2022)
